Measured values as given in patent US10934255B2, “Nrf and HIF activators/HDAC inhibitors and therapeutic methods using the same” (THE BOARD OF TRUSTEES OF THE UNIVERSITY OF ILLINOIS, priority 2017, dated 2021).

Experiments:
HDAC9 = HDAC9 (Homo sapiens, UniProt Q9UKV0); assay: HDAC9 isoform selectivity assay; assay type: biochemical; details: Table 2 isoform selectivity; read-out: HDAC Inhibition (IC50 uM) isoform 9
Method: (§1) The HDAC1, 2, 4, 5, 6, 7, 8, 9, 10, and 11 assays used isolated recombinant human protein; HDAC3/NcoR2 complex was used for the HDAC3 assay. Substrate for HDAC1, 2, 3, 6, 10, and 11 assays is a fluorogenic peptide from p53 residues 379-382 (RHKKAc); substrate for HDAC8 is fluorogenic diacyl peptide based on residues 379-382 of p53 (RHKAcKAc). Acetyl-Lys(trifluoroacetyl)-AMC substrate was used for HDAC4, 5, 7, and 9 assays. Compounds were dissolved in DMSO and tested in 10-dose IC50 mode with 3-fold serial dilution starting at 30 μM. Control Compound Trichostatin A (TSA) was tested in a 10-dose IC50 with 3-fold serial dilution starting at 5 μM. IC50 values were extracted by curve-fitting the dose/response slopes. Assays were performed in duplicate and IC50 values are an average of data from both experiments.

acetylated α-tubulin = assay: Tubulin acetylation in N2a cells (western blot); assay type: cell-based, mouse; details: normalized to the values of DMSO
Method: Cells were collected using RIPA buffer. WB was analyzed using Image QuantTL and the ratio between the intensity of the acetylated tubulin and the tubulin bands was calculated. These ratios were subsequently normalized to the values of DMSO (fold increase). For each sample 50 μg protein was loaded on a 12% SDS-PAGE gel and blotted on a PVDF membrane. The integrated density of acetylated α-tubulin and α-tubulin was measured on WB using Image J software. Furthermore the ratio between the integrated density of acetylated α-tubulin and α-tubulin was calculated.

HDAC11 = molecular target: T1, HDAC11 (Homo sapiens, UniProt Q96DB2); assay: HDAC11 isoform selectivity assay; assay type: biochemical; details: Table 2 isoform selectivity; read-out: HDAC Inhibition (IC50 uM) isoform 11
T1 sequence (Q96DB2 1-347): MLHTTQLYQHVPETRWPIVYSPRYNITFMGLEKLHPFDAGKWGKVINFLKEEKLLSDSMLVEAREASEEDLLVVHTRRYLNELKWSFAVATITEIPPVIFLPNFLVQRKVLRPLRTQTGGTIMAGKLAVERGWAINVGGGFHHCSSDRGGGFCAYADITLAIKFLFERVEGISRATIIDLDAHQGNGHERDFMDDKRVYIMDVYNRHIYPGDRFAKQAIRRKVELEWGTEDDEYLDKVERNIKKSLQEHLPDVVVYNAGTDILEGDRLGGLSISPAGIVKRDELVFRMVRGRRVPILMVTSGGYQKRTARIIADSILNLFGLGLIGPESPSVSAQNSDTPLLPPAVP
Method: (§2) The HDAC1, 2, 4, 5, 6, 7, 8, 9, 10, and 11 assays used isolated recombinant human protein; HDAC3/NcoR2 complex was used for the HDAC3 assay. […] Acetyl-Lys(trifluoroacetyl)-AMC substrate was used for HDAC4, 5, 7, and 9 assays. […] IC50 values were extracted by curve-fitting the dose/response slopes. Assays were performed in duplicate and IC50 values are an average of data from both experiments.

HDAC10 = molecular target: T2, HDAC10 (Homo sapiens, UniProt Q969S8); assay: HDAC10 isoform selectivity assay; assay type: biochemical; details: Table 2 isoform selectivity; read-out: HDAC Inhibition (IC50 uM) isoform 10
T2 sequence (Q969S8 1-669): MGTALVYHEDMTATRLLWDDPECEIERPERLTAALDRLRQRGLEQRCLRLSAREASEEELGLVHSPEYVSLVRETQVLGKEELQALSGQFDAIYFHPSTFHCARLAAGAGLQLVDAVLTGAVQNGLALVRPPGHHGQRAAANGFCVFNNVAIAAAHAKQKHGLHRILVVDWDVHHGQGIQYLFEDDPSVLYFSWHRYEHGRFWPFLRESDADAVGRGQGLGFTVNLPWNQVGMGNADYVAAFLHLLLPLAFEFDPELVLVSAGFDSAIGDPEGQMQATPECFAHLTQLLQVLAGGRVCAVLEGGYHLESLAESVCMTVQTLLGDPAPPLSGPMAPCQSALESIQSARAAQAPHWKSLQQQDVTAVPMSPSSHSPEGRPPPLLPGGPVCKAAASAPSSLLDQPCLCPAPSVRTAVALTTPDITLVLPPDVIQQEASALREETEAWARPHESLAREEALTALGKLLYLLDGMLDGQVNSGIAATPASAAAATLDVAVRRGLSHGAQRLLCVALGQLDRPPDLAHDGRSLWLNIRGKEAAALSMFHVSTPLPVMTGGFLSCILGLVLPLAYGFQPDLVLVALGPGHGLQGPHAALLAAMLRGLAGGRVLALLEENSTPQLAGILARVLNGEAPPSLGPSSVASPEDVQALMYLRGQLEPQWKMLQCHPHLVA
Method: as §1

HDAC5 = HDAC5 (Homo sapiens, UniProt Q9UQL6); assay: HDAC5 isoform selectivity assay; assay type: biochemical; details: Table 2 isoform selectivity; read-out: HDAC Inhibition (IC50 uM) isoform 5
Sequence of HDAC5 (Q9UQL6 whole entry, canonical isoform): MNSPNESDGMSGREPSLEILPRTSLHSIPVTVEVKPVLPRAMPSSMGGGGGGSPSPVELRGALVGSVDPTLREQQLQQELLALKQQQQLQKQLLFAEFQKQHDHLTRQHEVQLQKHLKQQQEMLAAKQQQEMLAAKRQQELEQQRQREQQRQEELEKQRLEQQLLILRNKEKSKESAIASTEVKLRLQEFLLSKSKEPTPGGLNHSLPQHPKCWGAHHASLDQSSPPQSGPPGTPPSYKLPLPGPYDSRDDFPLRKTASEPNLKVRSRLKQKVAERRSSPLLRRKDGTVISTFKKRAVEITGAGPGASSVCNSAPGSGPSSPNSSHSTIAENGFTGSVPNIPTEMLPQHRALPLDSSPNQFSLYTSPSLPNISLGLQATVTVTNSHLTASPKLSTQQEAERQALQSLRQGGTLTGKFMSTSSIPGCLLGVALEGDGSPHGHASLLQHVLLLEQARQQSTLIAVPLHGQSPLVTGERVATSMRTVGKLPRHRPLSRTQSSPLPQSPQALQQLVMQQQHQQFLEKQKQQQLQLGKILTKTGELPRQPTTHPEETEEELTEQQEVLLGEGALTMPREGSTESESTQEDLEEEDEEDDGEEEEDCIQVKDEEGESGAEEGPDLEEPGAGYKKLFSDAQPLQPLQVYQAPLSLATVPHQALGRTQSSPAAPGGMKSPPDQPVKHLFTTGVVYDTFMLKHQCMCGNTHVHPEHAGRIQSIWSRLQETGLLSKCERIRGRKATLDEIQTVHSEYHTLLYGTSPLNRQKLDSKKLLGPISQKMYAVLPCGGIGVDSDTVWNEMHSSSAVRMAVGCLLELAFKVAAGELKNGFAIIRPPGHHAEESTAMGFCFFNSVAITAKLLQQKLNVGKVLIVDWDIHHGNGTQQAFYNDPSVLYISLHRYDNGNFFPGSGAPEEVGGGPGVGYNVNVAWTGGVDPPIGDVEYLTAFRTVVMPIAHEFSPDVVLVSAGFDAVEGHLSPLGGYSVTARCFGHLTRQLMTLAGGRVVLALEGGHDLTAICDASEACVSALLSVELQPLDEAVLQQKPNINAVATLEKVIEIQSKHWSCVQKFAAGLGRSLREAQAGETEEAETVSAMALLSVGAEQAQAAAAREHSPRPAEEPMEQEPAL
Method: as §1

HDAC3/NcoR2 complex = HDAC3/NcoR2 complex (Homo sapiens, UniProt O15379); assay: HDAC3 isoform selectivity assay; assay type: biochemical; details: Table 2 isoform selectivity; read-out: HDAC Inhibition (IC50 uM) isoform 3
Sequence of HDAC3/NcoR2 complex (O15379 whole entry, canonical isoform): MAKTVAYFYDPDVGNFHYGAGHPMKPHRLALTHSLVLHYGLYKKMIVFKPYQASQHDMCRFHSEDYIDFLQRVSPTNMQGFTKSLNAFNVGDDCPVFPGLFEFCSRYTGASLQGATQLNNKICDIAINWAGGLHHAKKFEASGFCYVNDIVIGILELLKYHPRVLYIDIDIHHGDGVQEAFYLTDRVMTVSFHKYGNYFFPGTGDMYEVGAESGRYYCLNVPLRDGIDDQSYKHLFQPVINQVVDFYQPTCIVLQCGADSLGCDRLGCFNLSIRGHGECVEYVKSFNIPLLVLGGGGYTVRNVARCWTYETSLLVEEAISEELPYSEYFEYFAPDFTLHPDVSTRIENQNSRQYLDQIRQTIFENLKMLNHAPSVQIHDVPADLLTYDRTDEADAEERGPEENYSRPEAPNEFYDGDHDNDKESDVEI
Sequence of HDAC3/NcoR2 complex (Q9Y618 395-489 partner limits assumed): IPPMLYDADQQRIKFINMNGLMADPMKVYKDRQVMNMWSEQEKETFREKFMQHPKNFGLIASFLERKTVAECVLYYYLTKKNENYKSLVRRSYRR
Method: as §2

Sequence of HDAC9 (Q9UKV0 whole entry, the tested form may be a part, canonical isoform): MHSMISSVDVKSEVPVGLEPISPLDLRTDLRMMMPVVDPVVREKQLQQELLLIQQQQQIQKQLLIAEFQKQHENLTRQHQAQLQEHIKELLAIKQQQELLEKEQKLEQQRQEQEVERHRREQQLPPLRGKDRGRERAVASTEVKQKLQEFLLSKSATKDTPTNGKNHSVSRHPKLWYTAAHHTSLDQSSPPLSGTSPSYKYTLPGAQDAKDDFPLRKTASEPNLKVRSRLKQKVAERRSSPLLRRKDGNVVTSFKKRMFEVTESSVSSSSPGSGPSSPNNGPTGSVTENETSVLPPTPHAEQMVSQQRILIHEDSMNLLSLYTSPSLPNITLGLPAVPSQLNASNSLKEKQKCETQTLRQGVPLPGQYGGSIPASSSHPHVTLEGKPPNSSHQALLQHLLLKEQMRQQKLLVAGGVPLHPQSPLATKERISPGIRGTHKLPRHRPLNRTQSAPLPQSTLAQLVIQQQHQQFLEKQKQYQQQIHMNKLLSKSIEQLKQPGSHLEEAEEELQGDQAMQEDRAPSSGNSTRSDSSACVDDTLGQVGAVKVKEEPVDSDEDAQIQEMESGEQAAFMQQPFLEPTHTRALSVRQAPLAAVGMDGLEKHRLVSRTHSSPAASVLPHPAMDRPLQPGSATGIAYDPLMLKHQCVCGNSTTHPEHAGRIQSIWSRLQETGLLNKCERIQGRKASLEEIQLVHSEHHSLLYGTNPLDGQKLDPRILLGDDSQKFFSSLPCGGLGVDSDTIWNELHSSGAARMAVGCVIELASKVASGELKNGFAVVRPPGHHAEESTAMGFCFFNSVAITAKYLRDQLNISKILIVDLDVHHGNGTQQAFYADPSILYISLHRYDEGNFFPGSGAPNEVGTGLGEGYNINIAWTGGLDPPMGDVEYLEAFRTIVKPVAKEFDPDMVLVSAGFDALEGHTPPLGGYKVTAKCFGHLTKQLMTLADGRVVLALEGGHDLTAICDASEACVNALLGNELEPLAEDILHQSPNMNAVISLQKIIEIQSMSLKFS

| SMILES | IC50 (HDAC9) [µM] | Ratio acetyl tub/tub fold increase (acetylated α-tubulin; 1.0 uM) | IC50 (HDAC11) [µM] | IC50 (HDAC10) [µM] | IC50 (HDAC5) [µM] | IC50 (HDAC3/NcoR2 complex) [µM] | Ratio acetyl tub/tub fold increase (acetylated α-tubulin; 0.01 uM) | Ratio acetyl tub/tub fold increase (acetylated α-tubulin; 0.1 uM) |
| --- | --- | --- | --- | --- | --- | --- | --- | --- |
| O=C(NO)c1ccc(CN2CCc3ccc(Cl)cc32)cc1 [II-ING-6, 4-((6-Chloroindolin-1-yl)methyl)-N-hydroxybenzamide] | 2.06 | 15.5 1.0 uM fold | 4.52 | 6.39 | 2.7 | 4.34 | – | – |
| Cn1c(NCc2ccc(C(=O)NO)cc2)nc2ccccc21 [II-ING-13, N-Hydroxy-4-(((1-methyl-1H-benzo[d]imidazol-2-yl)amino)methyl)benzamide] | 1.1 | – | 2.11 | 5.95 | 1.96 | 3.51 | 2.0 (0.01 uM) fold | – |
| O=C(NO)c1ccc(CN2CCc3cc(Cl)ccc32)cc1 [II-ING-39, 4-((5-Chloroindolin-1-yl)methyl)-N-hydroxybenzamide] | – | – | – | – | – | – | – | 1.69 (0.1 uM) fold |
| O=C(NO)c1ccc(CN2CCc3ccc(F)cc32)cc1 [II-ING-41, 4-((6-Fluoroindolin-1-yl)methyl)-N-hydroxybenzamide] | 1 | – | 5.37 | 6.03 | 1.39 | 5.43 | – | 3.47 (0.1 uM) fold |
| O=C(NO)c1ccc(CN2CCc3cc(F)ccc32)cc1 [II-ING-42, 4-((5-Fluoroindolin-1-yl)methyl)-N-hydroxybenzamide] | – | – | – | – | – | – | – | 2.46 (0.1 uM) fold |
| O=C(NO)c1ccc(CN2CCc3ccccc32)cc1 [II-ING-44, N-Hydroxy-4-(indolin-1-ylmethyl)benzamide] | – | – | – | – | – | – | – | 2.68 (0.1 uM) fold |
| COc1ccc2c(c1)CCN2Cc1ccc(C(=O)NO)cc1 [II-ING-49, N-Hydroxy-4-((5-methoxyindolin-1-yl)methyl)benzamide] | – | – | – | – | – | – | – | 2.61 (0.1 uM) fold |
